In PubChem BioAssay AID2742 (NMMLSC, 2010):
The source made the active and inactive calls.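 Rule for the calls: active = fitted half-maximal concentration for changing background-corrected GFP signal at or below a set limit; inactive = the rest.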

Test: TOR pathway reporter MEP2-GFP, concentration series – S. cerevisiae, flow cytometry GFP, MLPCN hits, dose response (AID 2742);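 note: GFP tag reports level of MEP2 protein as a downstream target of TOR signalling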
Conditions: S. cerevisiae MEP2-GFP strain, flow cytometry fluorescence, 3 h; at 33 µM (top of the series)

Compound	GFP fluorescence (kMESF), higher = increase
COc1ccc(/C=C2\C(=O)ON=C2c2ccccc2)cc1	4.38 kMESF (inactive)
COc1cc(C=C2C(=O)c3ccccc3C2=O)cc(OC)c1OC	2.43 kMESF (inactive)
O=S(=O)(c1ccccc1)c1ccc(C(F)(F)F)cn1	2.27 kMESF (inactive)
COc1ccccc1[C@]1(C)ON(c2ccccc2C(F)(F)F)C1=O	5.08 kMESF (inactive)
COc1ccccc1C(=O)NNC(=S)NC(=O)c1cccs1	4.73 kMESF (inactive)
Cc1cc(C)nc(S/C=C/C(=O)c2ccccc2)n1	3.2 kMESF (inactive)
CCC(=O)Nc1ccc(NC(=O)c2cc3ccccc3o2)c(OC)c1	2.4 kMESF (inactive)
O=C(/C=C/c1ccnc2ccccc12)c1cccs1	4.23 kMESF (inactive)
COc1ccc(C(=O)NC(=S)NNC(=O)c2cnccn2)cc1	3.91 kMESF (inactive)
CCC(=O)Oc1oc(-c2ccccc2)nc1C=Nc1ccccc1OC	2.69 kMESF (inactive)
C=CCN1C(=O)/C(=C/c2ccc(-c3ccc(F)cc3)o2)SC1=S	8.29 kMESF (inactive)
CC(=O)Oc1ccc(N2C(=O)C3C4C=CC(O4)C3C2=O)cc1 (configuration not stated)	3.13 kMESF (inactive)
Cc1ccc2[nH]c(C)c(/C=C/c3cc[n+](C)cc3)c2c1	4.54 kMESF (inactive)
Cc1cc(C2CCCCC2)n(O)c(=O)c1	5.36 kMESF (inactive)
O=S(=O)(/N=C(\Sc1ccc(Cl)cc1)c1ccccc1)c1ccccc1	4.33 kMESF (inactive)
CCc1nc2ccccc2c(=O)n1NC(=O)c1c(O)c2ccccc2n(CC)c1=O	2.98 kMESF (inactive)
CC(=O)Oc1oc(-c2ccccc2)nc1C=Nc1ccccc1	3.71 kMESF (inactive)
Cc1cccc(C(=O)NC(=S)NNC(=O)Cc2ccccc2)c1	3.56 kMESF (inactive)
Cc1cc(C)c2c(c1)/C(=C/C(=O)c1ccc(Br)s1)C(=O)N2	3.51 kMESF (inactive)
O=C(COc1ccccc1)N1CCN(c2ncnc3c2cnn3-c2ccccc2)CC1	1.97 kMESF (inactive)
CCN1/C(=C/C=C/c2sc3ccccc3[n+]2CC)Sc2ccccc21	105 kMESF (inactive)

Compound	GFP fluorescence (kMESF), higher = increase
O=C1C(Cl)=C(Nc2ccccc2O)C(=O)N1c1ccccc1	4.11 kMESF (inactive)
Cc1c(C)c2ccc(Oc3ccc([N+](=O)[O-])cc3C(F)(F)F)c(C)c2oc1=O	2 kMESF (inactive)
CCC(=O)Nc1ccc(NC(=O)c2cc3ccccc3o2)cc1	2.2 kMESF (inactive)
CCc1ccc(/C=C/C(=O)c2cc(Br)ccc(=O)c2O)cc1	5.16 kMESF (inactive)
O=C(Nc1nnc(-c2ccc(F)cc2)o1)c1cccc([N+](=O)[O-])c1	2.99 kMESF (inactive)
COc1ccc(Cl)cc1C(Nc1cccnc1)c1ccc2cccnc2c1O (configuration not stated)	5.91 kMESF (inactive)
CC(C)[C@@]1(c2ccccc2)ON(c2ccccc2C(F)(F)F)C1=O	2.37 kMESF (inactive)
Cc1ccc2nc(Cl)c3nnnn3c2c1	4.36 kMESF (inactive)
O=C1CCN(S(=O)(=O)c2ccccc2)CCN1CCOCc1ccc(F)cc1	1.97 kMESF (inactive)
O=C(/C=C/c1ccccn1)c1cc(Br)ccc1O	4.38 kMESF (inactive)
COc1ccc([N+](=O)[O-])c(S(=O)(=O)c2ccccc2)n1	3.41 kMESF (inactive)
CC(=O)OC[C@]12CC[C@H]3[C@@](C)(CC[C@H]4C(C)(C)CCC[C@]34C)[C@@H]1C[C@H](C1=CC(=O)O[C@@H]1OC(C)=O)O2	1.79 kMESF (inactive)
CCCCc1ccc(/C=C2/C(=O)ON=C2c2ccccc2)s1	2.26 kMESF (inactive)
O=[N+]([O-])c1ccc(N=Nc2c(Cl)cc(O)cc2Cl)cc1	4.93 kMESF (inactive)
Cc1cc2ccccn2c1C(=O)c1ccc([N+](=O)[O-])o1	-12.4 kMESF (inactive)
On1ccccc1=S	3.58 kMESF (inactive)
CC(C)(C)c1ccc(NC(=O)COC(=O)c2ccc([N+](=O)[O-])s2)cc1	2.3 kMESF (inactive)
COc1cccc2cc(-c3nc4ccccc4o3)c(=O)oc12	1.66 kMESF (inactive)
O=C(Oc1ccnc2cc(Cl)ccc12)N1CCOCC1	2.97 kMESF (inactive)
COc1ccc(C2=CC3=C(Br)C(=O)C(C)(O)C(=O)C3=CO2)cc1 (configuration not stated)	-0.97 kMESF (inactive)
Oc1cc(-c2ccc(N3CCCCC3)nc2)cc2cccnc12	3.04 kMESF (inactive)

Compound	GFP fluorescence (kMESF), higher = increase
Cc1ccc2c(nc3s/c(=C\c4ccc(-c5ccccc5C(=O)O)o4)c(=O)n32)c1C	25.5 kMESF (inactive)
COc1cc(SSc2cc(OC)cc([N+](=O)[O-])c2N)c(N)c([N+](=O)[O-])c1	5.29 kMESF (inactive)
O=C(COc1c(Br)cc(Br)c2cccnc12)N1CCc2ccccc2C1	4.11 kMESF (inactive)
CSc1nnc2c3cc(F)ccc3n(C)c2n1	2.36 kMESF (inactive)
COc1ccccc1N1C(=O)c2cccc3c(C(=O)O)ccc(c23)C1=O	3.03 kMESF (inactive)
COc1ccc(/C=C2/C(=O)ON=C2c2ccccc2)cc1OC	4.51 kMESF (inactive)
O=C(CCc1ccccc1)NNC(=S)NC(=O)c1ccccc1	5.56 kMESF (inactive)
N#Cc1nccnc1S(=O)(=O)c1cccs1	2.29 kMESF (inactive)
Cc1cc(=O)oc2cc(Oc3ccc([N+](=O)[O-])cc3C(F)(F)F)ccc12	2.42 kMESF (inactive)
N/C(=N\OC(=O)c1cccc(Br)c1)c1ccccc1	2.6 kMESF (inactive)
COc1ccc([N+](=O)[O-])c(S(=O)(=O)c2ccc(Cl)cc2)n1	4.42 kMESF (inactive)
Cc1ccc(C(=O)Sc2cccccc2=O)cc1	3.82 kMESF (inactive)
N#Cc1cc([N+](=O)[O-])c(-n2nnc3ccccc32)c([N+](=O)[O-])c1	3.54 kMESF (inactive)
CCCCCn1c(=O)c(C(=O)Nc2nc3ccccc3[nH]2)c(O)c2ccccc21	1.97 kMESF (inactive)
CCCCC1OC23CCCCC2C(C#N)(C(=N)O3)C1(C#N)C#N (configuration not stated)	3.37 kMESF (inactive)
N#C/C(=C\c1cc(Br)ccc1F)C(=O)NC1CC1	6.77 kMESF (inactive)
CCCCC(=O)NC(=S)NNC(=O)CCc1ccccc1	3.11 kMESF (inactive)
CCOC(=O)c1c(C)oc2c1c(C(c1ccncc1)N1CCOCC1)c(O)c1ccccc12 (configuration not stated)	2.42 kMESF (inactive)
Cc1ccc(-c2nn(C(C)(C)C)c3ncnc(N)c23)cc1	6.01 kMESF (inactive)
COc1cc(NC(=O)c2cccc(C)c2)ccc1NC(=O)c1cc2ccccc2o1	2.2 kMESF (inactive)
